pEC50: −log10 of the molar value.
These molecules were tested against Anti-alpha galactosyl IgG antibody (assay: ELISA assay: streptavidin-captured biotin compound, binding of anti-alpha galactosyl IgG antibody). Conditions: geometric mean with standard error in brackets; streptavidin plate, anti-alpha galactosyl IgG 0.5 μg/mL; read-out: Concentration at half maximal binding.
Parameters: species or system human
Procedure: Compounds containing F (representing a carbohydrate molecule capable of binding to a human anti-alpha-galactosyl antibody) and L (as biotin) were assayed for binding at both ends of the compound using an enzyme-linked immunosorbent assay (ELISA). Streptavidin-coated plates captured biotin to the surface of the plate and the binding of anti-alpha galactosyl antibodies to the alpha-galactosyl moiety was reported by a secondary antibody labelled with HRP (Horse Radish Peroxidase).
Compounds were titrated 1.5 fold from a top dose of 50 nM in phosphate buffered saline (PBS) (Sigma D8537)+0.025% DMSO (Dimethyl Sulphoxide, Sigma D8418). Streptavidin immobilizer 96-well plates (nunc 436014) were coated with 100 μL of compound at room temperature for 2 hours shaking at 500 rpm. Plates were washed with 2×200 μL PBS-T (PBS with 0.05% Tween 20 (Sigma P9416)) and 1×200 μL PBS-T with a 5 minute incubation shaking at room temperature, prior to being blocked for 1 hour at room temperature with 1% Bovine Serum Albumin (BSA, Sigma A2153) in PBS-T. After removing the blocking buffer, 50 μL of Anti-alpha galactosyl IgG antibody (Anti-alpha-galactosyl antibody was purified from human IVIG (Gammagard) by affinity purification using an alpha-galactosyl-HSA (Human Serum Albumin) sepharose column by Rockland Immunochemicals Inc.) at 0.5 μg/mL in PBS-T+1% BSA and incubated shaking at room temperature for 1 hour.
Plates were washed 2×200 μL PBS-T and 3×200 μL PBS-T with a 5 minute incubation, shaking at room temperature before the addition of 50 μL 1:5000 Goat Anti-Human IgG-HRP (horseradish peroxidase) conjugate (Abcam ab97175). The plates were incubated shaking at room temperature for 1 hour before a final wash of 2×200 μL PBS-T and 3×200 μl PBS-T with a 5 minute incubation shaking at room temperature. 100 μL TMB buffer (3,3′,5,5′-tetramethylbenzidine, a chromogenic substrate for horseradish peroxidase) (Pierce 34021) was added to the plate and allowed to develop for 5-10 minutes before the samples were quenched with 50 μL 2M sulfuric acid (Sigma 258105). The absorbance was read at 450 nm on an Envision plate reader (Perkin Elmer). Results from wells (duplicate) were averaged and the 50% binding affinity calculated.
The concentration at which half-maximal binding is achieved is reported as a geometric mean with standard error in brackets. The number of independent experiments is also reported. In order to achieve a signal both ends of the molecule are required to bind (biotin to streptavidin and alpha-galactosyl to anti-alpha galactosyl antibodies) simultaneously.
With `CC(=O)NC1C(OCCCNC(=O)CCOCCOCCOCCOCCNC(=O)COc2cc(OCC(=O)NCCOCCOCCOCCOCCC(=O)NCCCOC3OC(CO)C(OC4OC(CO)C(O)C(OC5OC(CO)C(O)C(O)C5O)C4O)C(O)C3NC(C)=O)cc(-c3cc(C(=O)NCCNC(=O)CCCCC4SCC5NC(=O)NC54)c(OCC(=O)NCCOCCOCCOCCOCCC(=O)NCCCOC4OC(CO)C(OC5OC(CO)C(O)C(OC6OC(CO)C(O)C(O)C6O)C5O)C(O)C4NC(C)=O)cc3OCC(=O)NCCOCCOCCOCCOCCC(=O)NCCCOC3OC(CO)C(OC4OC(CO)C(O)C(OC5OC(CO)C(O)C(O)C5O)C4O)C(O)C3NC(C)=O)c2)OC(CO)C(OC2OC(CO)C(O)C(OC3OC(CO)C(O)C(O)C3O)C2O)C1O` (stereo not drawn) [Example 51] the pEC50 was 7.71. `CC(=O)NC1C(OCCCNC(=O)COc2cc(OCC(=O)NCCCOC3OC(CO)C(OC4OC(CO)C(O)C(OC5OC(CO)C(O)C(O)C5O)C4O)C(O)C3NC(C)=O)cc(C(=O)NCCNC(=O)CCOCCOCCOCCOCCOCCOCCOCCOCCOCCOCCOCCOCCNC(=O)CCCCC3SCC4NC(=O)NC43)c2)OC(CO)C(OC2OC(CO)C(O)C(OC3OC(CO)C(O)C(O)C3O)C2O)C1O` [Example 6, 1-{5-[(3aS,4S,6aR)-2-Oxo-hexahydro-1H-thieno[3,4-d]imidazolidin-4-yl]pentanamido}-N-(2-{[3,5-bis({[(3-{[(2R,5S)-5-{[(2S,5S)-3,5-dihydroxy-6-(hydroxymethyl)-4-{[(2R,5R)-3,4,5-trihydroxy-6-(hydroxymethyl)oxan-2-yl]oxy}oxan-2-yl]oxy}-3-acetamido-4-hydroxy-6-(hydroxymethyl)oxan-2-yl]oxy}propyl)carbamoyl]methoxy})phenyl]formamido}ethyl)-3,6,9,12,15,18,21,24,27,30,33,36-dodecaoxanonatriacontan-39-amide] showed a pEC50 of 8.24. `CC(=O)N[C@H]1[C@H](OCCCNC(=O)COc2cccc(-c3cc(OCC(=O)NCCCO[C@@H]4O[C@H](CO)[C@@H](O[C@@H]5O[C@H](CO)[C@H](O)[C@H](O[C@H]6O[C@H](CO)[C@H](O)[C@H](O)[C@H]6O)[C@H]5O)[C@H](O)[C@H]4NC(C)=O)cc(C(=O)NCCNC(=O)CCCC[C@@H]4SC[C@@H]5NC(=O)N[C@@H]54)c3)c2)O[C@H](CO)[C@@H](O[C@@H]2O[C@H](CO)[C@H](O)[C@H](O[C@H]3O[C@H](CO)[C@H](O)[C@H](O)[C@H]3O)[C@H]2O)[C@@H]1O` [Example 14] showed a pEC50 of 7.92. Molecule `CC(=O)NC1C(O)[C@H](O[C@@H]2OC(CO)[C@H](O)C(O[C@H]3OC(CO)[C@H](O)C(O)C3O)C2O)C(CO)O[C@H]1OCCCNC(=O)CCCNC(=O)COc1cc(OCC(=O)NCCCC(=O)NCCCO[C@@H]2OC(CO)[C@@H](O[C@@H]3OC(CO)[C@H](O)C(O[C@H]4OC(CO)[C@H](O)C(O)C4O)C3O)C(O)C2NC(C)=O)cc(-c2cc(OCC(=O)NCCCC(=O)NCCCO[C@@H]3OC(CO)[C@@H](O[C@@H]4OC(CO)[C@H](O)C(O[C@H]5OC(CO)[C@H](O)C(O)C5O)C4O)C(O)C3NC(C)=O)cc(C(=O)NCCNC(=O)CCCC[C@@H]3SC[C@@H]4NC(=O)N[C@@H]43)c2)c1` (stereo partly drawn) [Example 60] has a pEC50 of 7.62. For `CC(=O)NC1C(OCCCNC(=O)COc2cc(OCC(=O)NCCCOC3OC(CO)C(OC4OC(CO)C(O)C(OC5OC(CO)C(O)C(O)C5O)C4O)C(O)C3NC(C)=O)cc(-c3cc(OCC(=O)NCCCOC4OC(CO)C(OC5OC(CO)C(O)C(OC6OC(CO)C(O)C(O)C6O)C5O)C(O)C4NC(C)=O)cc(C(=O)NCCNC(=O)CCOCCOCCOCCOCCOCCOCCOCCOCCOCCOCCOCCOCCNC(=O)CCCCC4SCC5NC(=O)NC54)c3)c2)OC(CO)C(OC2OC(CO)C(O)C(OC3OC(CO)C(O)C(O)C3O)C2O)C1O` (stereo not drawn) [Example 16], the pEC50 was 8.08. `CC(=O)NC1C(OCCCNC(=O)CCOCCOCCOCCOCCOCCOCCOCCOCCOCCOCCOCCOCCNC(=O)COc2ccc(-c3cc(OCC(=O)NCCOCCOCCOCCOCCOCCOCCOCCOCCOCCOCCOCCOCCC(=O)NCCCOC4OC(CO)C(OC5OC(CO)C(O)C(OC6OC(CO)C(O)C(O)C6O)C5O)C(O)C4NC(C)=O)cc(C(=O)NCCNC(=O)CCOCCOCCOCCOCCOCCOCCOCCOCCOCCOCCOCCOCCNC(=O)CCCCC4SCC5NC(=O)NC54)c3)cc2)OC(CO)C(OC2OC(CO)C(O)C(OC3OC(CO)C(O)C(O)C3O)C2O)C1O` (stereo not drawn) [Example 48] gave a pEC50 of 7.60. Work on `CC(=O)N[C@H]1[C@H](OCCCNC(=O)CCCCC(=O)NCc2cccc(C(=O)NCCNC(=O)CCCC[C@@H]3SC[C@@H]4NC(=O)N[C@@H]43)c2)O[C@H](CO)[C@@H](O[C@@H]2O[C@H](CO)[C@H](O)[C@H](O[C@H]3O[C@H](CO)[C@H](O)[C@H](O)[C@H]3O)[C@H]2O)[C@@H]1O` [Example 13, N^1-(3-(((2R,3R,4R,5S,6R)-3-Acetamido-5-(((2S,3R,4S,5S,6R)-3,5-dihydroxy-6-(hydroxymethyl)-4-(((2R,3R,4S,5R,6R)-3,4,5-trihydroxy-6-(hydroxymethyl)tetrahydro-2H-pyran-2-yl)oxy)tetrahydro-2H-pyran-2-yl)oxy)-4-hydroxy-6-(hydroxymethyl)tetrahydro-2H-pyran-2-yl)oxy)propyl)-N6-(3-((2-(5-((3aS,4S,6aR)-2-oxohexahydro-1H-thieno[3,4-d]imidazol-4-yl)pentanamido)ethyl)carbamoyl)benzyl)adipamide] yielded a pEC50 of 7.43. In the case of `CC(=O)NC1C(OCCCNC(=O)COc2ccc(-c3cc(OCC(=O)NCCCOC4OC(CO)C(OC5OC(CO)C(O)C(OC6OC(CO)C(O)C(O)C6O)C5O)C(O)C4NC(C)=O)cc(C(=O)NCCNC(=O)CCOCCOCCOCCOCCOCCOCCOCCOCCOCCOCCOCCOCCNC(=O)CCCCC4SCC5NC(=O)NC54)c3)cc2)OC(CO)C(OC2OC(CO)C(O)C(OC3OC(CO)C(O)C(O)C3O)C2O)C1O` (stereo not drawn) [Example 15], the pEC50 was 7.94. In the case of `CC(=O)N[C@H]1[C@H](OCCCNC(=O)COc2cc(-c3cccc(C(=O)NCCNC(=O)CCCC[C@@H]4SC[C@@H]5NC(=O)N[C@@H]54)c3)cc(OCC(=O)NCCCO[C@@H]3O[C@H](CO)[C@@H](O[C@@H]4O[C@H](CO)[C@H](O)[C@H](O[C@H]5O[C@H](CO)[C@H](O)[C@H](O)[C@H]5O)[C@H]4O)[C@H](O)[C@H]3NC(C)=O)c2OCC(=O)NCCCO[C@@H]2O[C@H](CO)[C@@H](O[C@@H]3O[C@H](CO)[C@H](O)[C@H](O[C@H]4O[C@H](CO)[C@H](O)[C@H](O)[C@H]4O)[C@H]3O)[C@H](O)[C@H]2NC(C)=O)O[C@H](CO)[C@@H](O[C@@H]2O[C@H](CO)[C@H](O)[C@H](O[C@H]3O[C@H](CO)[C@H](O)[C@H](O)[C@H]3O)[C@H]2O)[C@@H]1O` [Example 55], the pEC50 was 7.56. Work on `CC(=O)NC1C(OCCCNC(=O)CCOCCOCCOCCOCCNC(=O)COc2cc(OCC(=O)NCCOCCOCCOCCOCCC(=O)NCCCOC3OC(CO)C(OC4OC(CO)C(O)C(OC5OC(CO)C(O)C(O)C5O)C4O)C(O)C3NC(C)=O)cc(-c3cc(OCC(=O)NCCOCCOCCOCCOCCC(=O)NCCCOC4OC(CO)C(OC5OC(CO)C(O)C(OC6OC(CO)C(O)C(O)C6O)C5O)C(O)C4NC(C)=O)cc(C(=O)NCCOCCOCCOCCOCCC(=O)NCCNC(=O)CCCCC4SCC5NC(=O)NC54)c3)c2)OC(CO)C(OC2OC(CO)C(O)C(OC3OC(CO)C(O)C(O)C3O)C2O)C1O` (stereo not drawn) [Example 58] yielded a pEC50 of 7.42. For `CC(=O)N[C@H]1[C@H](OCCCNC(=O)COc2cc(OCC(=O)NCCCO[C@@H]3O[C@H](CO)[C@@H](O[C@@H]4O[C@H](CO)[C@H](O)[C@H](O[C@H]5O[C@H](CO)[C@H](O)[C@H](O)[C@H]5O)[C@H]4O)[C@H](O)[C@H]3NC(C)=O)cc(-c3cc(C(=O)NCCNC(=O)CCCC[C@@H]4SC[C@@H]5NC(=O)N[C@@H]54)c(OCC(=O)NCCCO[C@@H]4O[C@H](CO)[C@@H](O[C@@H]5O[C@H](CO)[C@H](O)[C@H](O[C@H]6O[C@H](CO)[C@H](O)[C@H](O)[C@H]6O)[C@H]5O)[C@H](O)[C@H]4NC(C)=O)cc3OCC(=O)NCCCO[C@@H]3O[C@H](CO)[C@@H](O[C@@H]4O[C@H](CO)[C@H](O)[C@H](O[C@H]5O[C@H](CO)[C@H](O)[C@H](O)[C@H]5O)[C@H]4O)[C@H](O)[C@H]3NC(C)=O)c2)O[C@H](CO)[C@@H](O[C@@H]2O[C@H](CO)[C@H](O)[C@H](O[C@H]3O[C@H](CO)[C@H](O)[C@H](O)[C@H]3O)[C@H]2O)[C@@H]1O` [Example 9], the pEC50 was 8.00. For `CC(=O)NC1C(OCCCNC(=O)CCOCCOCCOCCOCCNC(=O)COc2ccc(-c3cc(OCC(=O)NCCOCCOCCOCCOCCC(=O)NCCCOC4OC(CO)C(OC5OC(CO)C(O)C(OC6OC(CO)C(O)C(O)C6O)C5O)C(O)C4NC(C)=O)cc(C(=O)NCCNC(=O)CCCCC4SCC5NC(=O)NC54)c3)cc2)OC(CO)C(OC2OC(CO)C(O)C(OC3OC(CO)C(O)C(O)C3O)C2O)C1O` (stereo not drawn) [Example 20], the pEC50 was 7.83.
